These results are taken from patent US20240269058A1, “AGAR HYDROLYSIS PRODUCT HAVING HYALURONIDASE INHIBITORY ACTIVITY AND USES THEREOF” (KOREA INSTITUTE OF OCEAN SCIENCE & TECHNOLOGY, priority 2022, published 2024).

This assay concerns the target hyaluronidase (HAase). Briefly: Hyaluronidase (HAase) inhibitory activity, N-acetylglucosamine from hyaluronic acid, DMAB absorbance at 540 nm. The assay is classed as biochemical. Here is the method:
The hyaluronidase (HAase) inhibitory activity was identified by measuring N-acetylglucosamine produced by degradation of hyaluronic acid by hyaluronidase. 12.5 μL of HAase (8 mg/mL) dissolved in 0.1 M acetate buffer (pH 3.5) was mixed with 12.5 μL of agar partial hydrolysis product (PHP) at a concentration of 9 mg/mL and reacted at 37° C. for 20 minutes. To activate the HAase, the mixture was added with 25 μL of 12.5 mM CaCl2) and reacted at 37 °C for 20 minutes, and added with 62.5 μL of hyaluronic acid (2.4 mg/ml) dissolved in 0.1 M acetate buffer (pH 3.5) and reacted at 37° ° C. for 40 minutes again. To stop the substrate-enzyme reaction, the reaction solution was added with 25 μl of 0.4 N NaOH and 25 μl of 0.4 N potassium tetraborate, reacted at 100° C. for 3 minutes, and then cooled. The reaction solution was added with 750 μl of a DMAB solution and cultured at 37 °C for 20 minutes, and the absorbance was measured at 540 nm. The inhibitory activity was calculated using the following equation.

The term IC50 denotes the concentration that inhibits the measured activity by half. Molecule `O=C([O-])c1cc(=O)c2c(OCC(O)COc3cccc4oc(C(=O)[O-])cc(=O)c34)cccc2o1.[Na+].[Na+]` [DSCG, Disodium cromoglycate] showed an IC50 (hyaluronidase inhibition) of 28 ± 10 µg/mL. Further, the “Inhibition (%)” value (sample solution 1 mg/mL) came out at 65.32 ± 0.20%.
